Measurements as given in patent publication US20260306640A1, “TECHNOLOGIES TARGETING CELL STATES” (Auron Therapeutics, Inc., priority 2023, published 2026).
Like-named read-outs stand apart in the source and are kept apart here.

What was measured:
[1] = test system: histone acetylation; test: Western blot of histone acetylation in neuroendocrine prostate cancer LASCPC-01 cells, 24 hours; format: cell-based; conditions: FIG. 3 (A)
Procedure: (§1) FIG. 3. Provided compounds can provide various activities. (A): Provided technologies can reduce KAT2A and KAT2B levels and histone acetylation levels. […] Cell viability (Cell Titer Glo) data relative to DMSO control after 7 days of treatment with compound 22 are presented as examples to confirm inhibition. GI50=5 nM. (C): Provided technologies can modulate cell states and induce differentiation. […] (D): Provided technologies can reduce KAT2A and KAT2B levels and histone acetylation levels including in neuroendocrine prostate cancer primary patient organoid. […] Concentrations are nM. […] Cell viability data relative to DMSO control after 21 days of treatment with compound 22 are presented as examples to confirm inhibition. GI50=3 nM. (F): Provided technologies can modulate cell states and induce differentiation.

[2] = test system: epithelial GSEA; test: Epithelial GSEA in LASCPC-01 cells; format: cell-based; conditions: LASCPC-01 cells as compared to DMSO; FIG. 3 (C)
Procedure: as §1

[3] = test system: histone acetylation; test: Western blot of histone acetylation in NEPC primary patient organoid, 72 hours; format: cell-based; conditions: FIG. 3 (D)
Procedure: as §1

[4] = test system: microglial GSEA; test: Microglial GSEA in NEPC primary patient organoid; format: cell-based; conditions: both epithelial and neural components; FIG. 3 (F)
Procedure: as §1

[5] = test system: NCI-H1048 cells; test: Cell growth inhibition, SCLC cell line NCI-H1048 (cell count, day 11); format: cell-based, human; conditions: for GI50: Homo sapiens
Description: (§2) Among other things, provided technologies are useful for treating various diseases, disorders, or conditions. For example, in some embodiments, provided technologies are useful for treating cancer as confirmed in the present Example. […] In some embodiments, provided technologies can inhibit cell proliferation. In some embodiments, the present disclosure provides technologies for assessing various technologies, e.g., compounds, compositions, or methods. Among other things, the present Example provides technologies, e.g., cell growth inhibition assay, for assessing various technologies. […] In some embodiments, the following cell growth inhibition methods are utilized to assess provided technologies.
SCLC: SCLC cell lines NCI-H1048 and NCI-H1876 were cultured in DMEM F12 media with 5% FBS, 1% Penicillin/Streptomycin and HITES supplement (Hydrocortisone, Insulin, Transferrin, Estradiol and Sodium Selenite). NCI-H1048 cells were plated at 10,000 cells/well of a 24-well plate and NCI-H1876 cells were plated at 20,000 cells/well of a 96-well plate. Compound and media were replenished every two days out to day 11 and 10 respectively. Cells were then trypsinized and counted using either hemocytometer or an automated Countess cell counter.
(§3) In some assessments, for cell growth inhibition, cells, e.g., MOLM13, NCI-H1048, and LASCPC-01 cells, were counted using a hemocytometer or automated cell counting in triplicates. In some assessments, proliferation in NEPC organoids as measured with Cell Titer Glo reagent (Promega). Growth inhibition was determined relative to vehicle control.

[6] = test system: LASCPC-01 cells; test: Cell growth inhibition, neuroendocrine prostate cancer line LASCPC-01 (Cell Titer Glo, day 7); format: cell-based
Description: as §2
Neuroendocrine prostate cancer: Neuroendocrine prostate cancer line LASCPC-01 cells were cultured in DMEM F12 media with 5% FBS, 1% Penicillin/Streptomycin and HITES supplement (Hydrocortisone, Insulin, Transferrin, Estradiol and Sodium Selenite). Cells were plated at 1,425 cells/well of a 96 well plate. Compound and media were replenished every two days and at day 7 cell viability was assayed using Cell Titer Glo following manufacturer's instructions.
as §3

[7] = target: KAT2A (Homo sapiens, UniProt Q92830); test: Western blot of KAT2A in NCI-H1048 tumors, 168 hours post last dose; format: in vivo; parameters: degrader, Western blot; conditions: FIG. 1 (F)
KAT2A, sequence (Q92830 whole entry): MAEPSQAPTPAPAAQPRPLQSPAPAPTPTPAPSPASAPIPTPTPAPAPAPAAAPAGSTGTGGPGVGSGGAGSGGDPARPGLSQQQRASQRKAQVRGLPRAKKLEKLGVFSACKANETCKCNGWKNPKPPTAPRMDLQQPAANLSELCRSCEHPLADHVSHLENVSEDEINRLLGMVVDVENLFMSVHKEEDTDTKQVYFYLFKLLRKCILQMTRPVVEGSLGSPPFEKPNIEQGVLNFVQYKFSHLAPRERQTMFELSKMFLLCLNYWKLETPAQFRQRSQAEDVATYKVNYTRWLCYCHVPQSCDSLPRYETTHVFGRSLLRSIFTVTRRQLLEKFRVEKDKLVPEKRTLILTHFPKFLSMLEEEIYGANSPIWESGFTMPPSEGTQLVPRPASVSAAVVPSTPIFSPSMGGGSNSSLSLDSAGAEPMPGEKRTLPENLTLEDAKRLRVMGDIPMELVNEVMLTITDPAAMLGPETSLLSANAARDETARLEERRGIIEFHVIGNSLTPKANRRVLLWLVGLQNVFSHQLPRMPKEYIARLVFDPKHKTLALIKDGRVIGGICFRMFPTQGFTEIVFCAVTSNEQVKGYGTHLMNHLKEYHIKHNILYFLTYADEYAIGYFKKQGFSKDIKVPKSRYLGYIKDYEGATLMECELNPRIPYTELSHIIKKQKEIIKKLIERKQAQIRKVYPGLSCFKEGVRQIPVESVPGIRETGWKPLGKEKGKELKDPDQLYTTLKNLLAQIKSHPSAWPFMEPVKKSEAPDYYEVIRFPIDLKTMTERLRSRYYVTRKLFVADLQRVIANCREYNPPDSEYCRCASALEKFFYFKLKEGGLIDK
Procedure: (§4) FIG. 1. Provided compounds can provide various activities including inhibiting tumor growth in vivo. (A): Provided compounds can inhibit tumor growth in vivo. Nude Balb/c mice were inoculated with NCI-H1048 cells in Matrigel. Tumors were allowed to grow up to about 200 mm^3 and mice were then randomized into two groups. Mice were dosed intraperitoneally (i.p.) once per week with vehicle or 30 mg/kg compound 22. Tumor size was measured every three to four days and mice were sacrificed once vehicle tumors reached 2000 mm^3. Error bar is SEM. Dosing started at day 17 post tumor inoculation. (B): Provided technologies can reduce KAT2A and KAT2B levels and histone acetylation levels. […] Vehicle is DMSO. […] Cell count data relative to DMSO control after 8 days of treatment with compound 22 are presented as examples to confirm inhibition. GI50=6 nM. (D): Provided technologies can inhibit tumor growth in vivo. Nude balb/c mice inoculated with H1048 tumors were dosed intraperitoneally once per week (qw i.p.) with vehicle (HbCD) or compound 22. Average tumor volumes+/−SEM from 6 mice are represented. […] See also (A). […] Certain body weights relative to starting weight are presented as examples to confirm tolerability and safety. (F): Provided technologies can reduce KAT2A and KAT2B levels and histone acetylation levels in tumor in vivo. […]

[8] = target: T1, KAT2B (Homo sapiens, UniProt Q92831); test: Western blot of KAT2B in NCI-H1048 tumors, 168 hours post last dose; format: in vivo; parameters: degrader, Western blot; conditions: FIG. 1 (F)
T1 sequence (Q92831 whole entry): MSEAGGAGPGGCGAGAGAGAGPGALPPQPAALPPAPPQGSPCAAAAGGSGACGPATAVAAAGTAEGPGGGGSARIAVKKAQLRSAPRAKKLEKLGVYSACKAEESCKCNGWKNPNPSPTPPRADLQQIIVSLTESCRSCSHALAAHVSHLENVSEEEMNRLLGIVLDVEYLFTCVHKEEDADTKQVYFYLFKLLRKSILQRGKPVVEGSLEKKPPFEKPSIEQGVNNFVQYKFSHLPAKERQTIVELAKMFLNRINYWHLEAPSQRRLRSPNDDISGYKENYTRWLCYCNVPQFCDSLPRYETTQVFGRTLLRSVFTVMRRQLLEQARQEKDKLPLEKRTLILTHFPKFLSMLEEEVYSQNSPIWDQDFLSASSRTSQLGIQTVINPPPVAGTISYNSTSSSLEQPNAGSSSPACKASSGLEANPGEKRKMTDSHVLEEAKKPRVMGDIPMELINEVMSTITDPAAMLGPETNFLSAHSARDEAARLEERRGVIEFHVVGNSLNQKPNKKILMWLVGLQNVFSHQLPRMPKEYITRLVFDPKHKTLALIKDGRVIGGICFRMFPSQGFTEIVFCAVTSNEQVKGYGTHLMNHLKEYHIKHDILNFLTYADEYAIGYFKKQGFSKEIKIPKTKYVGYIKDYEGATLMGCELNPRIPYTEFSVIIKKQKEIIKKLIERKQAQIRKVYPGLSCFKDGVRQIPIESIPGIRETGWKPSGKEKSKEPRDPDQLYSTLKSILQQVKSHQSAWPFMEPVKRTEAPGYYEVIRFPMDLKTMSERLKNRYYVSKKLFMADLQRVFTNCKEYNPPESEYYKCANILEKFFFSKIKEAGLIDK
Procedure: as §4

[9] = target: T1, KAT2B; test: Western blot of KAT2B level in NEPC primary patient organoid, 72 hours; format: cell-based; parameters: degrader, Western blot; conditions: FIG. 3 (D)
Procedure: as §1

GI50 ([5]; 264 h, NCI-H1048, day 11, cell count, read-out: H1048 GI50): 1 nM
GI50 ([5]; NCI-H1048, comparison table with Ref-1, read-out: Growth GI50): 1.5 nM
GI50 ([6]; 168 h, LASCPC-01, day 7, Cell Titer Glo, read-out: LASCPC GI50): 5.3 nM
GI50 ([6]; LASCPC-01, comparison table with Ref-1, read-out: Growth GI50): 5 nM
reduction of KAT2A in tumor [7]: significant reduction
reduction of KAT2B in tumor [8]: significant reduction
reduction of KAT2B level [9]: confirmed such reductions
SMILES: CN1C[C@H](Nc2cnn(C)c(=O)c2Br)C[C@H](c2ccc(C(=O)N3CCC(CN4CCN(c5ccc6c(c5)CN(C5CCC(=O)NC5=O)C6=O)CC4)CC3)cc2)C1 (stereo partly drawn) [Compound 22, 3-(5-(4-((1-(4-((3R,5R)-5-((5-bromo-1-methyl-6-oxo-1,6-dihydropyridazin-4-yl)amino)-1-methylpiperidin-3-yl)benzoyl)piperidin-4-yl)methyl)piperazin-1-yl)-1-oxoisoindolin-2-yl)piperidine-2,6-dione]
reduction of histone acetylation level [1]: confirm such reduction
epithelial GSEA [2]: significant upregulation
reduction of histone acetylation level [3]: confirmed such reductions
microglial GSEA [4]: significant upregulation
cell growth in vitro ([5]; NCI-H1048 cells, FIG. 1): inhibit cell growth in vitro and in vivo
cell growth in vitro ([6]; LASCPC-01 cells, FIG. 3): inhibit cell growth in vitro and in vivo
